In patent publication US11931343B2 (ARCUS BIOSCIENCES, INC., priority 2018, dated 2024):

Biological target: T1, human CD73 (Homo sapiens, UniProt P21589)
T1 sequence (P21589 27-549): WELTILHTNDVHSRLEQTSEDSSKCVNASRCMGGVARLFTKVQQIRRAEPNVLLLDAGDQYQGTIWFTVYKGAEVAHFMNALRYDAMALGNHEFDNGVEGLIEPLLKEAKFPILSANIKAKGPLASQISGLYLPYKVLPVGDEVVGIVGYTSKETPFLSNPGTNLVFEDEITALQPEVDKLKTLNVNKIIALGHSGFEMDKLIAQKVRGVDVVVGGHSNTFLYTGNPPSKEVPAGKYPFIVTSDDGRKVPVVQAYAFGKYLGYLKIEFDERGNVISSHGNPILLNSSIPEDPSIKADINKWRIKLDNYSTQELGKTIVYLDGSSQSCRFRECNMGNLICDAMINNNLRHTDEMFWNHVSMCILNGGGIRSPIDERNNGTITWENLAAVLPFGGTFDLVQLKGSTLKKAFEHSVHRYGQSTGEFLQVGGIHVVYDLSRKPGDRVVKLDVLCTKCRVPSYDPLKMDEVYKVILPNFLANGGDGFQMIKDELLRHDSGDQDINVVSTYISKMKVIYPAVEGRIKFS
Assay: Inhibition of Ecto-5′-nucleotidase (CD73) activity in CHO-CD73 cells, phosphate release from AMP
Type: cell-based
Conditions: CHO-K1 cells stably transfected with human CD73; 25 μM AMP; 50 minutes, 37° C.; read-out: Potency: CD73 IC50

SMILES | IC50 [nM]
Oc1cccc(-n2nnc3c(Cl)cc(-c4ccnn4Cc4ccccc4)cc32)c1 [Example 9, 3-[6-(1-Benzyl-1H-pyrazol-5-yl)-4-chloro-1H-1,2,3-benzotriazol-1-yl]phenol] | < 100
Clc1ccc(Cn2nccc2-c2cc(Cl)c3nnn(-c4ccc5cn[nH]c5c4)c3c2)cc1 [Example 44] | < 100
Clc1cc(-c2ccnn2Cc2ccccn2)cc2c1nnn2-c1ccc2cn[nH]c2c1 [Example 45] | 100 to 1000
FC(F)(F)Oc1ccc(Cn2nccc2-c2cc(Cl)c3nnn(-c4ccc5cn[nH]c5c4)c3c2)cc1 [Example 46] | < 100
c1cc(-c2ccc3nnn(-c4ccc5cn[nH]c5c4)c3c2)n(CC2CC2)n1 [Example 47] | > 1000
N#Cc1cccc(Cn2nccc2-c2ccc3nnn(-c4ccc5cn[nH]c5c4)c3c2)c1 [Example 48] | > 1000
CC(C)c1ccc(Cn2nccc2-c2cc(Cl)c3nnn(-c4ccc5cn[nH]c5c4)c3c2)cc1 [Example 51] | 100 to 1000
Clc1ccccc1Cn1nccc1-c1cc(Cl)c2nnn(-c3ccc4cn[nH]c4c3)c2c1 [Example 52] | < 100
FC(F)(F)Oc1ccccc1Cn1nccc1-c1cc(Cl)c2nnn(-c3ccc4cn[nH]c4c3)c2c1 [Example 53] | 100 to 1000
Cc1ccc(Cn2nccc2-c2cc(Cl)c3nnn(-c4ccc5cn[nH]c5c4)c3c2)cc1 [Example 54] | < 100
COc1ccc(Cn2nccc2-c2ccc3nnn(-c4ccc5cn[nH]c5c4)c3c2)cc1 [Example 55] | 100 to 1000
Cc1cnn(Cc2ccc(Cl)cc2)c1-c1cc(Cl)c2nnn(-c3ccc4cn[nH]c4c3)c2c1 [Example 56] | 100 to 1000
Fc1cc(Cn2nccc2-c2ccc3nnn(-c4ccc5cn[nH]c5c4)c3c2)ccc1Cl [Example 58] | < 100
Clc1ccc(Cn2nccc2-c2cc(Cl)c3nnn(-c4ccc5cn[nH]c5c4)c3c2)c(Cl)c1 [Example 59] | < 100
Clc1cccnc1Cn1nccc1-c1cc(Cl)c2nnn(-c3ccc4cn[nH]c4c3)c2c1 [Example 61] | > 1000
FC(F)c1ccc(Cn2nccc2-c2cc(Cl)c3nnn(-c4ccc5cn[nH]c5c4)c3c2)cc1 [Example 63] | < 100
Fc1cc(-c2ccnn2Cc2ccc(Cl)cc2)cc2c1nnn2-c1ccc2cn[nH]c2c1 [Example 64] | < 100
Fc1cc(-c2ccnn2Cc2ccccc2Cl)cc2c1nnn2-c1ccc2cn[nH]c2c1 [Example 65] | 100 to 1000
CCc1ccc(Cn2nccc2-c2cc(Cl)c3nnn(-c4ccc5cn[nH]c5c4)c3c2)cc1 [Example 68] | < 100
FC(F)(F)c1ccc(Cn2nccc2-c2cc(Cl)c3nnn(-c4ccc5cn[nH]c5c4)c3c2)cc1 [Example 69] | 100 to 1000
CC(c1ccccc1)n1nccc1-c1cc(Cl)c2nnn(-c3ccc4cn[nH]c4c3)c2c1 (centres unmarked) [Example 70] | 100 to 1000
CC(c1ccccc1)n1nccc1-c1cc(F)c2nnn(-c3ccc4cn[nH]c4c3)c2c1 (centres unmarked) [Example 71] | > 1000
CC(c1ccccc1)n1nccc1-c1ccc2nnn(-c3ccc4cn[nH]c4c3)c2c1 (centres unmarked) [Example 72] | > 1000
Fc1ccc(Cn2nccc2-c2cc(Cl)c3nnn(-c4ccc5cn[nH]c5c4)c3c2)nc1 [Example 73] | < 100

SMILES | IC50 [nM]
Cc1cnc(Cn2nccc2-c2cc(Cl)c3nnn(-c4ccc5cn[nH]c5c4)c3c2)c(F)c1 [Example 74] | 100 to 1000
Fc1cc(-c2ccnn2Cc2ccc(Cl)cc2Cl)cc2c1nnn2-c1ccc2cn[nH]c2c1 [Example 75] | < 100
Fc1cc(Cl)ccc1Cn1nccc1-c1cc(F)c2nnn(-c3ccc4cn[nH]c4c3)c2c1 [Example 76] | < 100
Clc1cnc(Cn2nccc2-c2ccc3nnn(-c4ccc5cn[nH]c5c4)c3c2)c(Cl)c1 [Example 79] | 100 to 1000
Clc1cnc(Cn2nccc2-c2cc(Cl)c3nnn(-c4ccc5cn[nH]c5c4)c3c2)c(Cl)c1 [Example 80] | 100 to 1000
Fc1cnc(Cn2nccc2-c2cc(Cl)c3nnn(-c4ccc5cn[nH]c5c4)c3c2)c(Cl)c1 [Example 81] | 100 to 1000
Fc1cc(Cn2nccc2-c2cc(Cl)c3nnn(-c4ccc5cn[nH]c5c4)c3c2)ccc1Cl [Example 82] | < 100
Fc1cc(Cl)ccc1Cn1nccc1-c1cc(Cl)c2nnn(-c3ccc4cn[nH]c4c3)c2c1 [Example 83] | < 100
Cc1ccc(Cn2nccc2-c2cc(Cl)c3nnn(-c4ccc5cn[nH]c5c4)c3c2)nc1 [Example 84] | 100 to 1000
Fc1cc(-c2ccnn2Cc2ccccn2)cc2c1nnn2-c1ccc2cn[nH]c2c1 [Example 85] | 100 to 1000
Cc1ccc(Cn2nccc2-c2cc(F)c3nnn(-c4ccc5cn[nH]c5c4)c3c2)nc1 [Example 86] | 100 to 1000
Cc1cnc(Cn2nccc2-c2cc(F)c3nnn(-c4ccc5cn[nH]c5c4)c3c2)c(F)c1 [Example 87] | > 1000
Cc1cc(F)cnc1Cn1nccc1-c1cc(F)c2nnn(-c3ccc4cn[nH]c4c3)c2c1 [Example 88] | > 1000
Cc1ccc(Cn2nccc2-c2cc(Cl)c3nnn(-c4ccc5cn[nH]c5c4)c3c2)c(Cl)c1 [Example 89] | < 100
Brc1ccc(Cn2nccc2-c2ccc3nnn(-c4ccc5cn[nH]c5c4)c3c2)cc1 [Example 90] | 100 to 1000
Fc1cc(-c2ccnn2Cc2ccc(C(F)F)cc2)cc2c1nnn2-c1ccc2cn[nH]c2c1 [Example 91] | 100 to 1000
CC(c1ccc(Br)cn1)n1nccc1-c1ccc2nnn(-c3ccc4cn[nH]c4c3)c2c1 (centres unmarked) [Example 92] | 100 to 1000
c1cc(-c2ccc3nnn(-c4ccc5cn[nH]c5c4)c3c2)n(CC2CCCCO2)n1 (centres unmarked) [Example 93] | > 1000
Clc1cc(-c2ccnn2CC2CCCCO2)cc2c1nnn2-c1ccc2cn[nH]c2c1 (centres unmarked) [Example 94] | 100 to 1000
Cc1cc(Cl)ccc1Cn1nccc1-c1cc(F)c2nnn(-c3ccc4cn[nH]c4c3)c2c1 [Example 95] | < 100
Cc1cc(Cl)ccc1Cn1nccc1-c1cc(Cl)c2nnn(-c3ccc4cn[nH]c4c3)c2c1 [Example 96] | < 100
Cc1ccc(Cn2nccc2-c2cc(F)c3nnn(-c4ccc5cn[nH]c5c4)c3c2)c(Cl)c1 [Example 97] | < 100
Fc1cccnc1Cn1nccc1-c1ccc2nnn(-c3ccc4cn[nH]c4c3)c2c1 [Example 98] | > 1000
CC(c1ccccn1)n1nccc1-c1cc(Cl)c2nnn(-c3ccc4cn[nH]c4c3)c2c1 (centres unmarked) [Example 99] | > 1000

SMILES | IC50 [nM]
Cc1ccc(Cn2nccc2-c2cc(F)c3nnn(-c4ccc5cn[nH]c5c4)c3c2)cc1 [Example 100] | 100 to 1000
Fc1cc(-c2ccnn2Cc2ccc(Cl)cn2)cc2c1nnn2-c1ccc2cn[nH]c2c1 [Example 101] | < 100
FC(F)(F)c1ccccc1Cn1nccc1-c1cc(Cl)c2nnn(-c3ccc4cn[nH]c4c3)c2c1 [Example 102] | 100 to 1000
Fc1cc(-c2ccnn2Cc2ccccc2C(F)(F)F)cc2c1nnn2-c1ccc2cn[nH]c2c1 [Example 103] | 100 to 1000
Fc1cc(Cl)cnc1Cn1nccc1-c1cc(Cl)c2nnn(-c3ccc4cn[nH]c4c3)c2c1 [Example 104] | 100 to 1000
N#Cc1ccc(Cn2nccc2-c2cc(Cl)c3nnn(-c4ccc5cn[nH]c5c4)c3c2)nc1 [Example 106] | 100 to 1000
N#Cc1ccc(Cn2nccc2-c2cc(F)c3nnn(-c4ccc5cn[nH]c5c4)c3c2)nc1 [Example 107] | 100 to 1000
FC(F)(F)c1ccc(Cn2nccc2-c2cc(Cl)c3nnn(-c4ccc5cn[nH]c5c4)c3c2)nc1 [Example 108] | 100 to 1000
Clc1ccc(Cn2nccc2-c2cc(Cl)c3nnn(-c4ccc5cn[nH]c5c4)c3c2)c(Br)c1 [Example 109] | 100 to 1000
FC(F)(F)c1ccc(Cn2nccc2-c2cc(Cl)c3nnn(-c4ccc5cn[nH]c5c4)c3c2)c(Cl)c1 [Example 110] | 100 to 1000
N#Cc1ccc(Cn2nccc2-c2cc(Cl)c3nnn(-c4ccc5cn[nH]c5c4)c3c2)c(F)c1 [Example 112] | < 100
N#Cc1ccc(Cn2nccc2-c2cc(C#N)c3nnn(-c4ccc5cn[nH]c5c4)c3c2)cc1 [Example 114] | 100 to 1000
CC(c1ccc(C#N)cc1)n1nccc1-c1ccc2nnn(-c3ccc4cn[nH]c4c3)c2c1 (centres unmarked) [Example 115] | 100 to 1000
CC(c1ccc(C#N)cc1)n1nccc1-c1cc(F)c2nnn(-c3ccc4cn[nH]c4c3)c2c1 (centres unmarked) [Example 116] | 100 to 1000
CC(c1ccc(C#N)cc1)n1nccc1-c1cc(Cl)c2nnn(-c3ccc4cn[nH]c4c3)c2c1 (centres unmarked) [Example 117] | 100 to 1000
CC(c1ccc(C(N)=O)cc1)n1nccc1-c1ccc2nnn(-c3ccc4cn[nH]c4c3)c2c1 (centres unmarked) [Example 118] | > 1000
c1cc(-c2ccc3nnn(-c4ccc5cn[nH]c5c4)c3c2)n(Cc2ccc(C3CC3)cc2)n1 [Example 119] | 100 to 1000
N#Cc1ccc(Cn2nccc2-c2cc(F)c3nnn(-c4ccc5nc[nH]c5c4)c3c2)cc1 [Example 120] | > 1000
FC1(F)CN(CCn2nccc2-c2ccc3nnn(-c4ccc5cn[nH]c5c4)c3c2)C1 [Example 121] | > 1000
FC(F)(F)c1cc(-c2ccnn2Cc2ccc(Cl)cc2Cl)cc2c1nnn2-c1ccc2cn[nH]c2c1 [Example 122] | 100 to 1000
N#Cc1ccc(Cn2nccc2-c2cc(C(F)(F)F)c3nnn(-c4ccc5cn[nH]c5c4)c3c2)cc1 [Example 123] | 100 to 1000
Clc1cc(-c2ccnn2CCc2ccccc2)cc2c1nnn2-c1ccc2cn[nH]c2c1 [Example 124] | 100 to 1000
N#Cc1ccc(Cn2nccc2-c2cc(C(F)(F)F)c3nnn(-c4ccc5cn[nH]c5c4)c3c2)nc1 [Example 125] | 100 to 1000
